{"source": "paper PMC6792352", "about": "“Limited Chemical Structural Diversity Found to Modulate Thyroid Hormone Receptor in the Tox21 Chemical Library” (Environmental Health Perspectives, 2019)", "note": "Where a name gives a salt, the structure may show the parent alone."}
{"experiment": "in vitro", "details": "rat, gh3-tre-luc cells, AC50 (uM) modified / 1000", "units": {"CC50 at 24 h": "µM"}}
{"smiles": "C=C[C@H]1CN2CC[C@H]1C[C@H]2[C@H](OC(=O)OCC)c1ccnc2ccc(OC)cc12", "note": "[Quinine ethyl carbonate]", "CC50 at 24 h": "> 50"}
{"smiles": "CC(=O)NS(=O)(=O)c1ccc(N)cc1", "note": "[Sulfacetamide]", "CC50 at 24 h": "> 90"}
{"smiles": "CCOC(=O)C1=C(C)NC(C)=C(C(=O)OCC)C1c1ccccc1/C=C/C(=O)OC(C)(C)C", "note": "[Lacidipine]", "CC50 at 24 h": 11.2}
{"smiles": "CCc1ccc(O)c(OC)c1", "note": "[4-Ethyl-2-methoxyphenol]", "CC50 at 24 h": "> 90"}
{"smiles": "CCCn1cc[n+](C)c1C", "note": "[1,2-Dimethyl-3-propylimidazolium iodide]", "CC50 at 24 h": "> 90"}
{"smiles": "Cc1c(I)c(=O)n(-c2ccccc2)n1C", "note": "[Iodoantipyrine]", "CC50 at 24 h": "> 50"}
{"smiles": "Cc1cc(-c2ccc(N=Nc3cc(S(=O)(=O)O)c4ccccc4c3N)c(C)c2)ccc1N=Nc1cc(S(=O)(=O)O)c2ccccc2c1N", "note": "[C.I. Direct Red 2]", "CC50 at 24 h": 62.5}
{"smiles": "CC/C(=C\\C(=N/O)C(N)=O)C(C)[N+](=O)[O-]", "note": "(centres unmarked) [FR900409]", "CC50 at 24 h": "> 90"}
{"smiles": "CC(=O)C1(C)CC2=C(CCCC2(C)C)CC1C", "note": "(centres unmarked) [Isocyclemone E]", "CC50 at 24 h": "> 90"}
{"smiles": "CCNc1nc(Cl)nc(NC(C)(C)C)n1", "note": "[Terbutylazine]", "CC50 at 24 h": "> 90"}
{"smiles": "COC(C)(C)C", "note": "[Methyl tert-butyl ether]", "CC50 at 24 h": "> 90"}
{"smiles": "CC(C)(c1ccc(Oc2ccc3c(c2)C(=O)OC3=O)cc1)c1ccc(Oc2ccc3c(c2)C(=O)OC3=O)cc1", "note": "[2,2-Bis(4-(3,4-dicarboxyphenoxy)phenyl)propane dianhydride]", "CC50 at 24 h": "> 90"}
{"smiles": "COc1cccc2c1C(=O)c1c(O)c3c(c(O)c1C2=O)C[C@@](O)(C(=O)CO)C[C@@H]3O[C@H]1C[C@H](N)[C@H](O[C@@H]2CCCCO2)[C@H](C)O1", "note": "[Pirarubicin]", "CC50 at 24 h": 1.64}
{"smiles": "COc1cc(CNC(=O)CCCC/C=C/C(C)C)ccc1O", "note": "[Capsaicin]", "CC50 at 24 h": "> 90"}
{"smiles": "CNC(=O)N(C)c1nc2ccccc2s1", "note": "[Methabenzthiazuron]", "CC50 at 24 h": "> 90"}
{"smiles": "NC(=O)c1cccc([N+](=O)[O-])c1", "note": "[3-Nitrobenzamide]", "CC50 at 24 h": "> 90"}
{"smiles": "CC(C)C(C)C", "note": "[2,3-Dimethylbutane]", "CC50 at 24 h": "> 90"}
{"smiles": "CC(=O)C=CC1=C(C)CCCC1(C)C", "note": "[4-(2,6,6-Trimethyl-cyclohex-1-enyl)-but-3-en-2-one]", "CC50 at 24 h": "> 90"}
{"smiles": "CCCC(=O)O", "note": "[Butanoic acid]", "CC50 at 24 h": "> 100"}
{"smiles": "c1ccc2c(c1)OCC(CN1CCCCC1)O2", "note": "(centres unmarked) [Piperoxan]", "CC50 at 24 h": "> 50"}
{"smiles": "O=c1c2ccccc2nnn1CCl", "note": "[3-(Chloromethyl)-1,2,3-benzotriazin-4(3H)-one]", "CC50 at 24 h": "> 90"}
{"smiles": "CCCCCCC(C)(C)S", "note": "[tert-Nonanethiol]", "CC50 at 24 h": "> 90"}
{"smiles": "O=C(O)c1cccc(-c2noc(-c3ccccc3F)n2)c1", "note": "[Ataluren]", "CC50 at 24 h": "> 50"}
{"smiles": "CCCCCCCCCCCCCCCCCCNC(=O)OC1CCN(C(=O)OC[C@H](COC(=O)N(Cc2cccc[n+]2CC)C(=O)c2ccccc2OC)OC)CC1", "note": "[Minopafant]", "CC50 at 24 h": 13.6}
{"smiles": "Cc1cc(=O)[nH]c(=S)[nH]1", "note": "[6-Methyl-2-thiouracil]", "CC50 at 24 h": "> 90"}
{"smiles": "CC1=C(O)C(=O)C(C)O1", "note": "(centres unmarked) [4-Hydroxy-2,5-dimethyl-3(2H)furanone]", "CC50 at 24 h": "> 90"}
{"smiles": "CCCC(CCC)C(=O)OC1C[C@H]2CC[C@@H](C1)[N+]2(C)C", "note": "(some centres unmarked) [Anisotropine methylbromide]", "CC50 at 24 h": "> 50"}
{"smiles": "COc1ccc(COC(C)=O)cc1", "note": "[4-Methoxybenzyl acetate]", "CC50 at 24 h": "> 80"}
{"smiles": "O=C(O)c1cc(Cl)cc(Cl)c1", "note": "[3,5-Dichlorobenzoic acid]", "CC50 at 24 h": "> 90"}
{"smiles": "CC1=C(Br)C(=O)C(Br)=C/C1=C(/c1ccccc1S(=O)(=O)O)c1cc(Br)c(O)c(Br)c1C", "note": "[Bromocresol green sodium salt]", "CC50 at 24 h": 44.7}
{"smiles": "CCCCC/C=C\\CCC=O", "note": "[(4Z)-4-Decenal]", "CC50 at 24 h": "> 90"}
{"smiles": "CCCCCCCCCCCCOC(C)=O", "note": "[Dodecyl acetate]", "CC50 at 24 h": "> 90"}
{"smiles": "CCCCCCCCCCCCCOC(=O)CCSCCC(=O)OCCCCCCCCCCCCC", "note": "[Di(tridecyl) thiodipropionate]", "CC50 at 24 h": "> 20"}
{"smiles": "c1ccc(Nc2ccccc2)cc1", "note": "[Diphenylamine]", "CC50 at 24 h": "> 90"}
{"experiment": "in vitro", "details": "rat, gh3-tre-luc cells, AC50 (uM) modified / 1000, Tox21_110001=Tox21_302025; viability, 1 nM T3 present, 24 h", "units": {"CC50 at 24 h": "µM"}}
{"smiles": "CCC(=O)c1ccccc1", "note": "[1-Phenylpropan-1-one]", "CC50 at 24 h": "> 90"}
